Measured values from US9474790B2, “Stable, protracted GLP-1/glucagon receptor co-agonists for medical use” (Novo Nordisk A/S, priority 2013, dated 2016).
Numbered stars: 1 amine (or outer) side, 2 acyl side, 3 side chain; on linkers, the order of the positions; unused ones are H or OH. Bridge positions count the residues as written; N and C are the ends. Square brackets hold non-standard residues; d marks the D form. Side chains are listed from the residue outwards. Peptide text beside a SMILES is read from it. I, II: the chains in the order shown. * marks the point of attachment. C18 diacid = O=C(O)CCCCCCCCCCCCCCCCC(=O)*; γGlu = O=C(O)[C@H](CCC(=O)[*:2])N[*:1]; Ac4c = NC1(C(=O)O)CCC1; AEEA = NCCOCCOCC(=O)O; Aib = CC(C)(N)C(=O)O

biological target: T1, human glucagon receptor (Homo sapiens, UniProt P47871); assay: Glucagon receptor binding, 125I-glucagon displacement SPA on isolated membranes; conditions: displacement of 125I-glucagon from membranes; read-out: IC50 GlucR
T1 construct: expressed in transfected cells; host or cells: BHK cells (parent BHK570, CRE luciferase clone BHK/KZ10-20-48), clone pLJ6'-4-25
T1 sequence (P47871 26-477): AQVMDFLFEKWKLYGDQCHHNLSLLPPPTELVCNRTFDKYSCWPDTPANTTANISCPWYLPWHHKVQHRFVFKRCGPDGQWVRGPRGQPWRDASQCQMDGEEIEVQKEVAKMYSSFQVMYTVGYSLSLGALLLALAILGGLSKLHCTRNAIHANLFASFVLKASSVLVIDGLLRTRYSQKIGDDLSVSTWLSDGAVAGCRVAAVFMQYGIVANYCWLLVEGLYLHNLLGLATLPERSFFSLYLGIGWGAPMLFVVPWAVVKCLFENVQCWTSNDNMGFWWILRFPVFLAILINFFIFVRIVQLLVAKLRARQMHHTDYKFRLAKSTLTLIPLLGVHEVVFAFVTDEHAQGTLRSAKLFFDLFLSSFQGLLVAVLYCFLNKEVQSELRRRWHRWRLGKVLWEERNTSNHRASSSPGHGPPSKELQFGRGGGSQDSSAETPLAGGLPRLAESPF
How it was run: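 Displacement IC50 derived by non-linear regression of SPA counts after 2 h, 25 °C incubation of compound with [125I]-glucagon (480 pM solution, 25 μl) and membranes of hGCGR-transfected BHK cells. Buffer was HEPES pH 7.4 with ovalbumin; serum albumin was held at 0.001% max or 0.2% final.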

Row | Compound | IC50 [nM]
1 | CC(C)C[C@H](NC(=O)[C@H](Cc1ccc(O)cc1)NC(=O)[C@H](CCCCN)NC(=O)[C@H](CO)NC(=O)[C@H](CC(C)C)NC(=O)[C@H](CC(=O)O)NC(=O)[C@H](CO)NC(=O)[C@@H](NC(=O)[C@H](Cc1ccccc1)NC(=O)[C@@H](NC(=O)CNC(=O)[C@H](Cc1c[nH]cn1)NC(=O)C(C)(C)NC(=O)[C@@H](N)Cc1c[nH]cn1)[C@@H](C)O)[C@@H](C)O)C(=O)N[C@@H](CCC(=O)O)C(=O)N[C@@H](CO)C(=O)N[C@@H](CCCCN)C(=O)N[C@@H](CCCNC(=N)N)C(=O)N[C@@H](C)C(=O)N[C@@H](CCCNC(=N)N)C(=O)N[C@@H](CCC(=O)O)C(=O)N[C@@H](Cc1ccccc1)C(=O)N[C@H](C(=O)N[C@@H](CCC(N)=O)C(=O)N[C@@H](Cc1c[nH]c2ccccc12)C(=O)N[C@@H](CC(C)C)C(=O)N[C@@H](CC(C)C)C(=O)N[C@@H](CCCCNC(=O)CC[C@H](NC(=O)CC[C@H](NC(=O)CC[C@H](NC(=O)CCCCCCCCCCCCCCCCC(=O)O)C(=O)O)C(=O)O)C(=O)O)C(=O)N[C@H](C(N)=O)[C@@H](C)O)C(C)C [Example 34, N^ε28-[(4S)-4-carboxy-4-[[(4S)-4-carboxy-4-[[(4S)-4-carboxy-4-(17-carboxyheptadecanoylamino)butanoyl]amino]butanoyl]amino]butanoyl]-[Aib2,His3,Leu10,Glu15,Lys17,Arg20,Glu21,Leu27,Lys28]-Glucagon amide] (H-H[Aib]HGTFTSDLSKYLESKRAREFVQWLLK([γGlu-γGlu-γGlu-C18 diacid])T-NH2; N-terminus assumed) | 0.2
2 | CC(C)C[C@H](NC(=O)[C@H](Cc1ccc(O)cc1)NC(=O)[C@H](CCCCN)NC(=O)[C@H](CO)NC(=O)[C@H](CC(C)C)NC(=O)[C@H](CC(=O)O)NC(=O)[C@H](CO)NC(=O)[C@@H](NC(=O)[C@H](Cc1ccccc1)NC(=O)[C@@H](NC(=O)CNC(=O)[C@H](Cc1c[nH]cn1)NC(=O)C1(NC(=O)[C@@H](N)Cc2c[nH]cn2)CCC1)[C@@H](C)O)[C@@H](C)O)C(=O)N[C@@H](CCC(=O)O)C(=O)N[C@@H](CO)C(=O)N[C@@H](CCCNC(=N)N)C(=O)N[C@@H](CCCNC(=N)N)C(=O)N[C@@H](C)C(=O)N[C@@H](CCC(N)=O)C(=O)N[C@@H](CC(=O)O)C(=O)N[C@@H](Cc1ccccc1)C(=O)N[C@H](C(=O)N[C@@H](CCC(N)=O)C(=O)N[C@@H](Cc1c[nH]c2ccccc12)C(=O)N[C@@H](CC(C)C)C(=O)N[C@@H](CC(C)C)C(=O)N[C@@H](CCCCNC(=O)CNC(=O)[C@H](CO)NC(=O)[C@H](CCC(=O)O)NC(=O)CNC(=O)[C@H](CO)NC(=O)CC[C@H](NC(=O)CC[C@H](NC(=O)CCCCCCCCCCCCCCCCC(=O)O)C(=O)O)C(=O)O)C(=O)N[C@H](C(N)=O)[C@@H](C)O)C(C)C [Example 35, N^ε28-[2-[[(2S)-2-[[(2S)-4-carboxy-2-[[2-[[(2S)-2-[[(4S)-4-carboxy-4-[[(4S)-4-carboxy-4-(17-carboxyheptadecanoylamino)butanoyl]amino]butanoyl]amino]-3-hydroxypropanoyl]amino]acetyl]amino]butanoyl]amino]-3-hydroxypropanoyl]amino]acetyl]-[Acb2,His3,Leu10,Glu15, Leu27,Lys28]-Glucagon amide] (I: H-H[Ac4c]HGTFTSDLSKYLESRRAQDFVQWLLKT-NH2 / II: {C18 diacid-γGlu-γGlu}-SGESG; amide I:28-II:C; N-terminus assumed) | 0.7
3 | CC(C)C[C@H](NC(=O)[C@H](Cc1ccc(O)cc1)NC(=O)[C@H](CCCCN)NC(=O)[C@H](CO)NC(=O)[C@H](CC(C)C)NC(=O)[C@H](CC(=O)O)NC(=O)[C@H](CO)NC(=O)[C@@H](NC(=O)[C@H](Cc1ccccc1)NC(=O)[C@@H](NC(=O)CNC(=O)[C@H](CCC(N)=O)NC(=O)C1(NC(=O)[C@@H](N)Cc2c[nH]cn2)CCC1)[C@@H](C)O)[C@@H](C)O)C(=O)N[C@@H](CCC(=O)O)C(=O)N[C@@H](CO)C(=O)N[C@@H](CCCCN)C(=O)N[C@@H](CCCNC(=N)N)C(=O)N[C@@H](C)C(=O)N[C@@H](CCCNC(=N)N)C(=O)N[C@@H](CCC(=O)O)C(=O)N[C@@H](Cc1ccccc1)C(=O)N[C@H](C(=O)N[C@@H](CCC(N)=O)C(=O)N[C@@H](Cc1c[nH]c2ccccc12)C(=O)N[C@@H](CC(C)C)C(=O)N[C@@H](CC(C)C)C(=O)N[C@@H](CCCCNC(=O)CNC(=O)[C@H](CO)NC(=O)[C@H](CCC(=O)O)NC(=O)CNC(=O)[C@H](CO)NC(=O)CC[C@H](NC(=O)CC[C@H](NC(=O)CCCCCCCCCCCCCCCCC(=O)O)C(=O)O)C(=O)O)C(=O)N[C@H](C(N)=O)[C@@H](C)O)C(C)C [Example 36, N^ε28-[2-[[(2S)-2-[[(2S)-4-carboxy-2-[[2-[[(2S)-2-[[(4S)-4-carboxy-4-[[(4S)-4-carboxy-4-(17-carboxyheptadecanoylamino)butanoyl]amino]butanoyl]amino]-3-hydroxypropanoyl]amino]acetyl]amino]butanoyl]amino]-3-hydroxypropanoyl]amino]acetyl]-[Acb2,Leu10,Glu15,Lys17, Arg20,Glu21,Leu27,Lys28]-Glucagon amide] (I: H-H[Ac4c]QGTFTSDLSKYLESKRAREFVQWLLKT-NH2 / II: {C18 diacid-γGlu-γGlu}-SGESG; amide I:28-II:C; N-terminus assumed) | 0.6
4 | CC(C)C[C@H](NC(=O)[C@H](Cc1ccc(O)cc1)NC(=O)[C@H](CCCCN)NC(=O)[C@H](CO)NC(=O)[C@H](CC(C)C)NC(=O)[C@H](CC(=O)O)NC(=O)[C@H](CO)NC(=O)[C@@H](NC(=O)[C@H](Cc1ccccc1)NC(=O)[C@@H](NC(=O)CNC(=O)[C@H](CCC(N)=O)NC(=O)C(C)(C)NC(=O)[C@@H](N)Cc1c[nH]cn1)[C@@H](C)O)[C@@H](C)O)C(=O)N[C@@H](CC(=O)O)C(=O)N[C@@H](C)C(=O)N[C@@H](CCCNC(=N)N)C(=O)N[C@@H](CCCNC(=N)N)C(=O)N[C@@H](C)C(=O)N[C@@H](CCCNC(=N)N)C(=O)N[C@@H](CCC(=O)O)C(=O)N[C@@H](Cc1ccccc1)C(=O)N[C@H](C(=O)N[C@@H](CCC(N)=O)C(=O)N[C@@H](Cc1c[nH]c2ccccc12)C(=O)N[C@@H](CC(C)C)C(=O)N[C@@H](CC(C)C)C(=O)N[C@@H](CC(N)=O)C(=O)N[C@@H](CCCCNC(=O)CC[C@H](NC(=O)CC[C@H](NC(=O)COCCOCCNC(=O)CC[C@H](NC(=O)CCCCCCCCCCCCCCCCC(=O)O)C(=O)O)C(=O)O)C(=O)O)C(N)=O)C(C)C [Example 39, N^ε29-[(4S)-4-carboxy-4-[[(4S)-4-carboxy-4-[[2-[2-[2-[[(4S)-4-carboxy-4-(17-carboxyheptadecanoylamino)butanoyl]amino]ethoxy]ethoxy]acetyl]amino]butanoyl]amino]butanoyl]-[Aib2,Leu10,Ala16,Arg20,Glu21,Leu27,Lys29]-Glucagon amide] (H-H[Aib]QGTFTSDLSKYLDARRAREFVQWLLNK([γGlu-γGlu-AEEA-γGlu-C18 diacid])-NH2; N-terminus assumed) | 5.6
5 | CC(C)C[C@H](NC(=O)[C@H](Cc1ccc(O)cc1)NC(=O)[C@H](CCCCN)NC(=O)[C@H](CO)NC(=O)[C@H](CC(C)C)NC(=O)[C@H](CC(=O)O)NC(=O)[C@H](CO)NC(=O)[C@@H](NC(=O)[C@H](Cc1ccccc1)NC(=O)[C@@H](NC(=O)CNC(=O)[C@H](CCC(N)=O)NC(=O)C(C)(C)NC(=O)[C@@H](N)Cc1c[nH]cn1)[C@@H](C)O)[C@@H](C)O)C(=O)N[C@@H](CCC(=O)O)C(=O)N[C@@H](CO)C(=O)N[C@@H](CCCNC(=N)N)C(=O)N[C@@H](CCCNC(=N)N)C(=O)N[C@@H](C)C(=O)N[C@@H](CCCNC(=N)N)C(=O)N[C@@H](CCC(=O)O)C(=O)N[C@@H](Cc1ccccc1)C(=O)N[C@H](C(=O)N[C@@H](CCC(N)=O)C(=O)N[C@@H](Cc1c[nH]c2ccccc12)C(=O)N[C@@H](CC(C)C)C(=O)N[C@@H](CC(C)C)C(=O)N[C@@H](CCCCNC(=O)CC[C@H](NC(=O)CC[C@H](NC(=O)CC[C@H](NC(=O)CCCCCCCCCCCCCCCCC(=O)O)C(=O)O)C(=O)O)C(=O)O)C(=O)N[C@H](C(N)=O)[C@@H](C)O)C(C)C [Example 41, N^ε28-[(4S)-4-carboxy-4-[[(4S)-4-carboxy-4-[[(4S)-4-carboxy-4-(17-carboxyheptadecanoylamino)butanoyl]amino]butanoyl]amino]butanoyl]-[Aib2,Leu10,Glu15, Arg20,Glu21,Leu27,Lys28]-Glucagon amide] (H-H[Aib]QGTFTSDLSKYLESRRAREFVQWLLK([γGlu-γGlu-γGlu-C18 diacid])T-NH2; N-terminus assumed) | 1.2
6 | CC(C)C[C@H](NC(=O)[C@H](Cc1ccc(O)cc1)NC(=O)[C@H](CCCCN)NC(=O)[C@H](CO)NC(=O)[C@H](CC(C)C)NC(=O)[C@H](CC(=O)O)NC(=O)[C@H](CO)NC(=O)[C@@H](NC(=O)[C@H](Cc1ccccc1)NC(=O)[C@@H](NC(=O)CNC(=O)[C@H](CCC(N)=O)NC(=O)C(C)(C)NC(=O)[C@@H](N)Cc1c[nH]cn1)[C@@H](C)O)[C@@H](C)O)C(=O)N[C@@H](CCC(=O)O)C(=O)N[C@@H](CO)C(=O)N[C@@H](CCCNC(=N)N)C(=O)N[C@@H](CCCNC(=N)N)C(=O)N[C@@H](C)C(=O)N[C@@H](CCCNC(=N)N)C(=O)N[C@@H](CCC(=O)O)C(=O)N[C@@H](Cc1ccccc1)C(=O)N[C@H](C(=O)N[C@@H](CCC(N)=O)C(=O)N[C@@H](Cc1c[nH]c2ccccc12)C(=O)N[C@@H](CC(C)C)C(=O)N[C@@H](CC(C)C)C(=O)N[C@@H](CCCCNC(=O)COCCOCCNC(=O)COCCOCCNC(=O)CC[C@H](NC(=O)CC[C@H](NC(=O)CC[C@H](NC(=O)CCCCCCCCCCCCCCCCC(=O)O)C(=O)O)C(=O)O)C(=O)O)C(=O)N[C@H](C(N)=O)[C@@H](C)O)C(C)C [Example 42, N^ε28-[2-[2-[2-[[2-[2-[2-[[(4S)-4-carboxy-4-[[(4S)-4-carboxy-4-[[(4S)-4-carboxy-4-(17-carboxyheptadecanoylamino)butanoyl]amino]butanoyl]amino]butanoyl]amino]ethoxy]ethoxy]acetyl]amino]ethoxy]ethoxy]acetyl]-[Aib2,Leu10,Glu15,Arg20,Glu21,Leu27,Lys28]-Glucagon amide] (H-H[Aib]QGTFTSDLSKYLESRRAREFVQWLLK([AEEA-AEEA-γGlu-γGlu-γGlu-C18 diacid])T-NH2; N-terminus assumed) | 38.2
